In patent US10201558B2, “Compositions of selenoorganic compounds and methods of use thereof” (Alltech, Inc., priority 2014, dated 2019):
Entries after “also recorded” stand apart in the source; their conditions may differ.

Columns and labels:
[1] = test system: Zic1-5, Foxp2, Drd1a, Tac1, Sez6, Penk, Dlx5, Rarb, Meis2, Ddx5, Gpr88, Pde10a, Akap5, Isl1; assay: QRT-PCR of Zic genes and brain development/neuronal function genes in APP/PS1 mouse brains; type: in vivo; settings: Compound C diet vs control diet
Description: (§1) Male APPΔNLh/ΔNLh×PS1P246 L/246 L knock-in model mice of Alzheimer's disease (abbreviated APP/PS1) were genotyped using standard primers for human APP (Amyloid Precursor Protein) and human PS1 (PSEN1). These APP/PS1 mice starting at the age of 6 months, were fed either a control diet containing normal levels of selenium (0.3 ppm from plant and inorganic selenium salt sources) or an experimental diet containing Compound C (the control diet to which was added 1 ppm Se from Compound C) for 6 months. […]
Approximately 10 mg brain sample was homogenized with a Qiagen TissueRuptor (Qiagen, Valencia, Calif.) and total RNA was extracted using an RNeasy Mini kit (Qiagen), following the protocol recommended by the company. […] Integrity and purity of isolated RNA was assessed using a NanoDrop ND-1000 spectrophotometer (Thermo Scientific, Wilmington, Del.) and further confirmed with an Agilent 2100 Bioanalyzer System (Agilent Technologies, Santa Clara, Calif.).
RNA samples were subjected to real-time PCR analysis using the Applied-Bioscience's RT kit and predesigned Taqman probes (Invitrogen), as described previously (Lan et al EMBO J 2003). Three to six samples were analyzed in each group. […]

[2] = test system: Insulin Degrading Enzyme (IDE); assay: Western blot of insulin degrading enzyme in APP/PS1 mouse brains; type: in vivo; settings: APP/PS1 mice, Compound C diet vs control diet
Description: as §1
Frozen hemispheres of control- and Compound C-treated APP/PS1 mice were weighed and homogenized in PBS buffer, and then subsequently extracted with RIPA buffer (Sigma) containing complete proteinase and phosphatase inhibitors (Fisher Scientific). Protein levels in the samples were determined by micro-BCA protein analysis according to the manufacturer's protocol. […] Positive signals on the membrane blots were detected using Amersham's enhanced chemiluminescence Western Blotting Prime Detection reagents (GE healthcare Lifescience, Pittsburgh, Pa.). Images of these luminescence signals on the membrane blots were captured using the LI-COR Odyssey Fc Image system (Lincoln, Nebr.). Protein band densities in Western blots were determined using NIH Image J software, and then normalized by Actb levels in each samples to obtain the protein levels.

RCAN1 = assay: QRT-PCR of RCAN1 and RCAN1.1 mRNA in control and FOXO4 KD IMR-32 cells; type: cell-based, human; settings: 24 hours
Description: (§2) IMR-32 cells were cultured on 12-well plates for 24 hours and then incubated with FOXO4 siRNA lentiviruses (SC-29650V, Santa Cruz) or control siRNA lentiviruses (sc-108080, Santa Cruz) in the presence of Polybrene (5 μg/ml, Santa Cruz) for 24 hours according to the manufacturer's protocol. These lentiviral siRNA-transfected cells were amplified in normal media for 3 days and then incubated with puromycin for 9-14 days to obtain the stable Control KD (stably transfected with the control siRNAs) and FOXO4KD (stably transfected with Foxo4 siRNAs) cells. These control and Foxo4 KD cells were subjected to cell survival, mitochondrial potential and RNA analysis.
(§3) Human IMR-32 cells were seeded on gelatinized 6-well (6.5×10^5 cells/well) or 24-well (1.3×10^5 cells/well) plates. Cells were treated with control (0 ppb) or various compounds for 6 hours or 24 hours. Total RNA from these cells was isolated using Trizol (Invitrogen) according to the manufacturer's protocol, and then incubated with DNase I to remove any potential contaminated genomic DNA. Then RNA samples were subjected to real-time PCR analysis using the Applied-Bioscience's RT kit and predesigned Taqman probes (Invitrogen), as described previously (Lan et al EMBO J 2003). The mRNA levels of UCP1, UCP2, UCP3, SLC25A27 (UCP4), SLC25A14 (UCP5), PSEN1, Nicastrin, GSK3B, MAPK11-14, PPARG, APOE, RCAN1, RCAN1.1, G6PC, INSR, IGF1R and FOXO4 were measured. Three to six samples were analyzed in each treatment group. Data were normalized by Actin B (ACTB) or Glyceraldehyde Phosphate Dehydrogenase (GAPDH) mRNA levels in each sample and are presented as mean±SEM of 3-6 samples.
To investigate whether Compound C can regulate transcription of RCAN1 in a dose-dependent and FOXO4-dependent manner, normal control cells and FOXO4 KD cells were treated with two doses of Compound C for 24 hours, and subjected to QRT-PCR analysis. First a specific RCAN1 Taqman probe that can recognize all RCAN1 mRNA isoforms was used to determine if Compound C can regulate the transcription of RCAN1.
To further determine whether Compound C can regulate the transcription of RCAN1.1 mRNA, the above Compound C-treated RNA samples were subjected to QRT-PCR using a specific RCAN1.1 mRNA Taqman probe.

PPARG = assay: QRT-PCR of PPARG mRNA in IMR-32 cells (normal, control KD, FOXO4 KD); type: cell-based, human
Description: as §2, §3
To explore this possibility, IMR-32 cells were treated with 150 ppb Compound C, Compound D or Compound E (150 ppb) for 6 hours and 24 hours, and then subjected to Western blot and QRT-PCR analyses. […] Therefore, Compound C and Compound D are downregulators of PPARG in IMR-32 cells at both mRNA and protein levels. […]

[3] = FOXO4KD cells, 75 ppb and 150 ppb

C[Se]C[C@H]1O[C@@H](n2cnc3c(N)ncnc32)C(O)C1O (stereo in doubt) [Compound C, 5′-deoxy-5′-methylselenoadenosine]
expression of Foxp2, Drd1a, Tac1, Sez6, Penk, Dlx5, Rarb, Meis, Ddx5, Gpr88, Pde10a, Isl1 and Akap5 by QRT-PCR [1]: significantly elevated
expression of Zic1, Zic2, Zic3, Zic4 and Zic5 by QRT-PCR [1]: significantly elevated
IDE protein levels in the brains [2]: increased; also recorded: elevated
RCAN1.1 mRNA expression (RCAN1; [3]): not significantly affected
total RCAN1 mRNA levels (RCAN1; [3]): not significantly altered
total RCAN1 mRNA levels (RCAN1; control cells (control siRNA lentiviruses), 75 ppb and 150 ppb): dose-dependent decrease; also recorded: significantly attenuated
RCAN1.1 mRNA expression (RCAN1; control cells, 150 ppb): inhibited
PPARG mRNA expression (PPARG; FOXO4KD cells, 75 ppb and 150 ppb, 24 hours): not significantly altered
PPARG mRNA levels (PPARG; IMR-32 cells, 150 ppb, 6 hours): significantly lower
PPARG mRNA levels (PPARG; control normal cells, 75 ppb and 150 ppb, 24 hours): attenuated
